Results taken from ChEMBL document CHEMBL5357063, “Lysophosphatidylcholines Enriched with cis and trans Palmitoleic Acid Regulate Insulin Secretion via GPR119 Receptor” (ACS Med Chem Lett, 2024).
Calls of active or inactive are those of the source. No cut-off for these calls is given here.

Assays:
EndoC-betaH1 [1] = assay: Induction of glucose stimulated insulin secretion in human EndoC-betaH1 cells at 100 nM incubated for 1 hr in presence of GPR119 antagonist by ELISA method; assay type: functional, cell-based
EndoC-betaH1 [2] = assay: Cytotoxicity against human EndoC-betaH1 cells assessed as reduction in cell viability at 10 uM measured after 24 to 72 hrs by PrestoBlue cell viability assay; assay type: toxicity, cell-based; conditions: endoc-betah1, 10 µM, time 24-72 hrs
EndoC-betaH1 [3] = assay: Induction of cAMP production in human EndoC-betaH1 cells at 5 uM in presence of GPR55 antagonist by ELISA method; assay type: functional, cell-based
EndoC-betaH1 [4] = assay: Effect on intracellular calcium mobilization in human EndoC-betaH1 cells at 5 uM measured after 3 mins; assay type: functional, cell-based
Cell membrane = assay: Induction of cell membrane permeabilization in human EndoC-betaH1 cells at 10 uM measured upto 3.5 mins propidium iodide staining based fluorescence analysis; assay type: subcellular
EndoC-betaH1 [5] = assay: Induction of insulin secretion in human EndoC-betaH1 cells at 5 uM incubated for 1 hr by ELISA method; assay type: functional, cell-based
[6] = Induction of cAMP production in human EndoC-betaH1 cells at 5 uM measured per mg of protein in presence of GPR119 antagonist by ELISA method; assay type: functional
EndoC-betaH1 [7] = assay: Induction of glucose stimulated insulin secretion in human EndoC-betaH1 cells at 5 uM incubated for 1 hr in presence of GPR55 antagonist by ELISA method; assay type: functional, cell-based
[8] = Induction of cAMP production in human EndoC-betaH1 cells at 5 uM by ELISA method; assay type: functional
EndoC-betaH1 [9] = assay: Induction of glucose stimulated insulin secretion in human EndoC-betaH1 cells at 5 uM incubated for 1 hr in presence of GPR120 antagonist by ELISA method; assay type: functional, cell-based
EndoC-betaH1 [10] = assay: Induction of glucose stimulated insulin secretion in human EndoC-betaH1 cells transfected with siRNA measured after 48 hrs in presence of GPR119 antagonist by ELISA method; assay type: functional, cell-based
EndoC-betaH1 [11] = assay: Induction of glucose stimulated insulin secretion in human EndoC-betaH1 cells at 5 uM incubated for 1 hr in presence of GPR119 antagonist by ELISA method (reference value: 2.03 fmol/microg); assay type: functional
EndoC-betaH1 [12] = assay: Induction of glucose stimulated insulin secretion in human EndoC-betaH1 cells at 1 uM incubated for 1 hr in presence of GPR119 antagonist by ELISA method; assay type: functional, cell-based
EndoC-betaH1 [13] = assay: Induction of cAMP production in human EndoC-betaH1 cells at 5 uM in presence of GPR120 antagonist by ELISA method; assay type: functional, cell-based
EndoC-betaH1 [14] = assay: Induction of cAMP production in human EndoC-betaH1 cells at 5 uM in presence of GPR40 antagonist by ELISA method; assay type: functional, cell-based
EndoC-betaH1 [15] = assay: Induction of glucose stimulated insulin secretion in human EndoC-betaH1 cells at 5 uM incubated for 1 hr in presence of GPR40 antagonist by ELISA method; assay type: functional, cell-based
EndoC-betaH1 [16] = assay: Cytotoxicity against human EndoC-betaH1 cells assessed as reduction in cell viability at 1 uM measured after 24 to 72 hrs by PrestoBlue cell viability assay; assay type: toxicity, cell-based; conditions: endoc-betah1, 1 µM, time 24-72 hrs
EndoC-betaH1 [17] = assay: Cytotoxicity against human EndoC-betaH1 cells assessed as reduction in cell viability at 5 uM measured after 48 to 72 hrs by PrestoBlue cell viability assay; assay type: toxicity, cell-based; conditions: endoc-betah1, 5 µM, time 48-72 hrs
EndoC-betaH1 [18] = assay: Cytotoxicity against human EndoC-betaH1 cells assessed as reduction in cell viability at 10 to 1000 uM measured after 24 to 72 hrs by PrestoBlue cell viability assay; assay type: toxicity, cell-based; conditions: endoc-betah1, 1000 µM, dose lower 10 µM, time lower 24 hrs, dose upper 1000 µM, time upper 72 hrs
EndoC-betaH1 [19] = assay: Induction of glucose stimulated insulin secretion in human EndoC-betaH1 cells at 5 uM incubated for 1 hr in presence of GPR119 antagonist by ELISA method (reference value: 1.97 fmol/microg); assay type: functional
EndoC-betaH1 [20] = assay: Induction of glucose stimulated insulin secretion in human EndoC-betaH1 cells at 5 uM incubated for 1 hr in presence of GPR119 antagonist by ELISA method; assay type: functional, cell-based
EndoC-betaH1 [21] = assay: Induction of cAMP production in human EndoC-betaH1 cells at 5 uM in presence of GPR119 antagonist by ELISA method; assay type: functional, cell-based

Activity (Cell membrane) | SMILES | Activity (EndoC-betaH1 [3]) | Activity (EndoC-betaH1 [4]) | Activity (EndoC-betaH1 [5]) | Activity [6] [pmol] | Activity (EndoC-betaH1 [7]) | Activity (EndoC-betaH1 [9]) | Activity (EndoC-betaH1 [10]) | Activity (EndoC-betaH1 [13]) | Activity (EndoC-betaH1 [14]) | Activity (EndoC-betaH1 [15]) | also measured
 | CC(C)c1noc(C2CCN(c3ncnc(Nc4ccc(S(C)(=O)=O)cc4F)c3[N+](=O)[O-])CC2)n1 |  |  |  |  |  |  |  |  |  |  | Activity (EndoC-betaH1 [1]): Active
inactive | CCCCCC/C=C\CCCCCCCC(=O)OC[C@@H](O)COP(=O)([O-])OCC[N+](C)(C)C | inactive | inactive | Active | 0.8 | Active | Active | inactive | Active | Active | Active | Activity (EndoC-betaH1 [2]): Non-Toxic; Activity [8]: 1.87 pg/µg; Activity (EndoC-betaH1 [11]): 1.47 fmol/µg; Activity (EndoC-betaH1 [12]): Active
inactive | CCCCCC/C=C/CCCCCCCC(=O)OC[C@@H](O)COP(=O)([O-])OCC[N+](C)(C)C |  | inactive | Active | 0.65 | Active | Active | inactive | Active | Active | Active | Activity (EndoC-betaH1 [16]): Non-Toxic; Activity (EndoC-betaH1 [17]): Toxic; Activity (EndoC-betaH1 [18]): Toxic; Activity (EndoC-betaH1 [19]): 1.34 fmol/µg

SMILES | Activity (Cell membrane) | Activity (EndoC-betaH1 [3]) | Activity (EndoC-betaH1 [4]) | Activity (EndoC-betaH1 [5]) | Activity [6] [pmol] | Activity (EndoC-betaH1 [7]) | Activity (EndoC-betaH1 [9]) | Activity (EndoC-betaH1 [10]) | Activity (EndoC-betaH1 [13]) | Activity (EndoC-betaH1 [14]) | Activity (EndoC-betaH1 [15]) | also measured
CCCCCCCCCCCCCCCC(=O)OC[C@@H](O)COP(=O)([O-])OCC[N+](C)(C)C | inactive | Active | inactive | Active |  | Active | Active |  | Active | Active | Active | Activity (EndoC-betaH1 [20]): inactive; Activity (EndoC-betaH1 [21]): Active
